Reference: patent US4931288A, “Controlled release compositions (II)” (Lloyds Bank PLC, priority 1979, dated 1990)

Assays:
[1] = Clinical induction of abortion; assay type: in vivo, human; details: from 1 to 2.5 mg
[2] = In vitro release of prostaglandin from dry polymer cylinders/pessaries/slices into phosphate buffer pH 7.4 via 3H activity; details: for T1/2: dried polymer sample, pH 7.4, 37°; for t1/2: pH 7.4, 37° C.
[3] = Clinical pilot study of hydrogel vaginal pessaries containing PGE2 10 mg (induction of labour); assay type: in vivo, human
Method: Hydrogel vaginal pessaries, formulated as above, each containing PGE2 10 mg, have been evaluated clinically in a pilot study.

[4] = In vitro release of prostaglandin from swollen (undried) polymer cylinders/pessaries into phosphate buffer pH 7.4 at 37° C.; assay type: physicochemical; details: for t1/2: pH 7.4, 37°
Method: (B) The procedure described in (A) is followed but the swollen cylinders obtained after 24 hours treatment with the PGE2 solution are not dried but are tested directly for the release of PGE2 into pH 7.4 phosphate buffer at 37° C. In this instance a typical half life is of the order of 10 hours.
To study the release of PGE2 from a fully swollen pessary into phosphate buffer pH 7.4 at 37° the polymer is swollen in an ethanol/water solution of PGE2 of 0.87 g C2 H5 OH solution of 1% w/v Prostin E2 contains 11 mg PGE2 0.09 g C2 H5 OH containing 1 μCi of ^3 HPGE2 is added, then 3.56 g H2 O. A slice of polymer 3.1 mm×10 mm×30 mm weighing 1.13 g is added to the prepared PGE2 solution in 3.7/1, w/w, water/ethanol in a polythene bag. The bag is sealed and the polymer allowed to swell over 20 hours. The swollen polymer slice is then removed and the surface wiped dry with a tissue before weighing. Uptake of solution: 4.44 g i.e. almost all the PGE2 is contained in the swollen gel. The pessary is rinsed in distilled water and then transferred to phosphate buffer solution pH 7.4 at 37° C. The release of PGE2 into the surrounding solution is measured by frequent regular replacement of the buffer and counting the activity of ^3 H in the withdrawn solution. […] It is also possible to calculate the diffusion coefficient of PGE2 in the swollen gel D=0.83×10^-6 cm^2 sec^-1.

CCCCC(C)(C)[C@@H](O)/C=C/[C@H]1[C@H](O)CC(=O)[C@@H]1CCCC/C=C/C(=O)O (relative stereo) [16:16-dimethyl-trans-Δ^2 -PGE1]
induction of abortion [1]: Induction of abortion has been effected

CCCCC(C)(C)[C@H](O)/C=C/[C@H]1[C@H](O)CC(=O)[C@@H]1CCCC/C=C/C(=O)OC [16,16-dimethyl-trans Δ^2 -PGE1 methyl ester]
half life of release ([2]; Example 11, dry cylinders, PEG 6,000/MDI/TMP (0.75 molar) polymer, pH 7.4 phosphate buffer, typical): ~95 h

CS(=O)(=O)NC(=O)CCC/C=C\C[C@H]1C(=O)C[C@@H](O)[C@@H]1/C=C/[C@@H](O)COc1ccccc1 [N methanesulphonyl 15z, 11α, 13E 15α)-9-Oxo-11,15-dihydroxy-16-phenoxy-w-tetranorprosta-5,13 dien-1-amide]
half-life of the drug in the pessary ([2]; Example 15, dried slice 1.2×24×40 mm, buffer pH 7.4, 37° C.): 3.7 h

CCCCC(C)(C)[C@H](O)/C=C/[C@H]1[C@H](O)CC(=O)[C@@H]1C/C=C\CCCC(=O)OC [Ono, 16,16-dimethyl PGE2, methyl ester]
dependence of half life t1/2 on thickness ([2]; Example 13, 3 different thicknesses): directly proportional to the square of the thickness | T1/2 ([2]; Example 13, thickness 0.25 mm): 0.5 h | T1/2 ([2]; Example 13, thickness 0.65 mm): 3.0 h | T1/2 ([2]; Example 13, thickness 1.00 mm): 6.3 h | half life of Ono in this sample ([2]; Example 13, dried slice 1 mm×11 mm×22 mm, phosphate buffer pH 7.4, 37°): 6.3 h

CCCCC(C)(C)C(O)C=CC1C(O)CC(=O)C1CC=CCCCC(=O)Oc1ccc(C=NNC(N)=O)cc1 (stereo not drawn) [PG ester, 16,16 dimethyl prostaglandin E2 benzaldehyde semi-carbazone]
duration of the release pattern ([2]; Example 14, 0.25 mm slice): 2 weeks | release rate ([2]; Example 14, 0.25 mm slice, day 2): 50 µg/h | release rate ([2]; Example 14, 0.25 mm slice, overnight): 13 µg/h | character of the release ([2]; Example 14, thin (0.25 mm) sample): essentially that of a fully swollen device containing a dispersion rather than a solution of a low solubility prostaglandin analogue

CCCCC[C@H](O)/C=C/[C@H]1[C@H](O)CC(=O)[C@@H]1C/C=C\CCCC(=O)O [PGE2]
labour and delivery outcome ([3]; patients with average or favourable induction prospects, PGE2 treatment alone, without orthodox induction): became established in labour and made good progress, with successful vaginal delivery | cervical ripening ([3]; unfavourable patients): progressive | establishment in labour ([3]; unfavourable patients): all were established in labour | latent phase of labour ([3]; unfavourable patients): expectedly longer | agreement of clinical experience with in vitro release ([3]; vaginal pessaries, PGE2 10 mg): accorded well with in vitro release studies | course of uterine activity ([3]; vaginal pessaries, PGE2 10 mg): maintained or gradually increased | time to appreciable uterine activity, not requiring analgesia ([3]; vaginal pessaries, PGE2 10 mg): 1 to 2 h | ripening of the cervix ([3]; vaginal pessaries, PGE2 10 mg, all cases): significant `ripening` of the cervix in all cases | half life for release ([4]; Example 10(B), swollen cylinders not dried, pH 7.4 phosphate buffer, 37° C., typical): ~10 h | half life in the fully swollen device relative to the initially dry device ([4]; Example 12): approximately half of the half life in the initially dry device | constancy of the rate of release ([4]; Example 12, fully swollen devices): do not provide the desirable reasonably constant period of the rate of release | half life t1/2 of PGE2 in the swollen pessary ([4]; Example 12, fully swollen pessary 3.1 mm×10 mm×30 mm, phosphate buffer pH 7.4, 37°): 2.7 h | t1/2 ([4]; Example 12, fully swollen pessary, thickness 1.2 mm): 0.7 h | t1/2 ([4]; Example 12, fully swollen pessary, thickness 2.4 mm): 2.0 h | t1/2 ([4]; Example 12, fully swollen pessary, thickness 3.1 mm): 2.7 h | diffusion coefficient of PGE2 in the swollen gel, D ([4]; Example 12, fully swollen pessary, calculated from release measurements): 0.83×10^-6 cm^2 sec^-1 | half life for release of the drug ([2]; Example 10(A), dry cylinders, PEG 6,000/MDI/TMP (0.75 molar) polymer, pH 7.4 phosphate buffer, 37° C., typical): ~20 h | t1/2 ([2]; Example 12, dry pessary, thickness 1.2 mm): 1.4 h | t1/2 ([2]; Example 12, dry pessary, thickness 1.5 mm): 2.4 h | t1/2 ([2]; Example 12, dry pessary, thickness 1.7 mm): 2.7 h | t1/2 ([2]; Example 12, dry pessary, thickness 2.6 mm): 7.0 h | t1/2 ([2]; Example 12, dry pessary, thickness 2.9 mm): 8.0 h | t1/2 ([2]; Example 12, dry pessary, thickness 3.4 mm): 12.0 h | half life t1/2 of the PGE2 in this polymer ([2]; Example 12, dry pessary, phosphate buffer pH 7.4, 37° C.): 7 h
